The test concerns the target ALPK1 (Homo sapiens (Human), UniProt Q96QP1). The test can be described thus: ALPK1 in vitro kinase assay (HTRF of TIFA phosphorylation). The format is biochemical. From the text:
In embodiments, a compound of Formula I, or a subembodiment described herein, is an inhibitor of ALPK1 as measured, for example, in an in vitro kinase assay, or an assay designed to measure the activation of downstream targets of ALPK1 pathway activation, for example NFkB transcriptional activation and the secretion of proinflammatory cytokines and chemokines, such as IL-8, which is also referred to as CXCL-8. In general, the computer program XL fit was used for data analysis, including non-linear regression analysis. The half maximal inhibitory concentration (IC50) was used as the measure of a compound's effectiveness in the assays. IC50 values were determined using the following logistic equation Y=min+(max−min)/(1+(X/IC50^−hillslpoe), where Y is the value at the compound concentration, X. The concentration response curve fitting was conducted using GraphPad Prism version 6.00 software.
ALPK1 kinase activity was measured in an in vitro assay using ADP-Heptose as the ALPK1 ligand and activator of its kinase activity and TIFA protein as the ALPK1 phosphorylation substrate. Since phosphorylated TIFA proteins oligomerize, Homogeneous Time-Resolved Fluorescence (HTRF) was used to measure protein:protein interaction between HA-tagged TIFA proteins as an indicator of TIFA phosphorylation.
In brief, dose-response studies were performed with HEK293 cells cultured in Dulbecco's Modified Eagle Medium (DMEM) supplemented 10% fetal bovine serum (FBS, Hyclone™) containing antibiotics (pen/strep, G418) in 384-well assay plates. Each well contained 0.1 mg TIFA, ALPK1 (2 nM final concentration in reaction mixture) and kinase buffer (100 mM of HEPES pH 7.4, 4 mM DTT, 40 mM MgCl2, 20 mM of β-Glycerol phosphate disodium salt, 0.4 mM of Na3VO4, 0.16 mg/mL). Titrations of the test compounds were prepared in dimethylsulphoxide (DMSO). The reaction was initiated by addition of ATP and ADP-Heptose.
For HTRF, samples were incubated with a Tb cryptate-labeled anti-HA antibody for capturing HA-tagged proteins according to the manufacturer's instructions (PerkinElmer™, CisBio™) and the fluorescence signal was quantified (Tecan Infinite F NANO+). HTRF signals were calculated as the HTRF ratio (ratio of fluorescence measured at 665 nm and 620 nm)×104 (thereby using the signal at 620 nm as an internal standard).
IC50 values were determined using 3- or 4-parameter logistic equation using GraphPad Prism version 6.00. The reference compound, A027, was used as a positive control for each plate.

[1] abbreviates: ALPK1 2 nM, TIFA substrate, ADP-Heptose activator, HTRF readout.

pIC50: −log10 of the molar value. Where a name gives a salt, the structure may show the parent alone. Read-outs that look alike come from different tables or passages of the source.

Chain of ALPK1 (Q96QP1 whole entry): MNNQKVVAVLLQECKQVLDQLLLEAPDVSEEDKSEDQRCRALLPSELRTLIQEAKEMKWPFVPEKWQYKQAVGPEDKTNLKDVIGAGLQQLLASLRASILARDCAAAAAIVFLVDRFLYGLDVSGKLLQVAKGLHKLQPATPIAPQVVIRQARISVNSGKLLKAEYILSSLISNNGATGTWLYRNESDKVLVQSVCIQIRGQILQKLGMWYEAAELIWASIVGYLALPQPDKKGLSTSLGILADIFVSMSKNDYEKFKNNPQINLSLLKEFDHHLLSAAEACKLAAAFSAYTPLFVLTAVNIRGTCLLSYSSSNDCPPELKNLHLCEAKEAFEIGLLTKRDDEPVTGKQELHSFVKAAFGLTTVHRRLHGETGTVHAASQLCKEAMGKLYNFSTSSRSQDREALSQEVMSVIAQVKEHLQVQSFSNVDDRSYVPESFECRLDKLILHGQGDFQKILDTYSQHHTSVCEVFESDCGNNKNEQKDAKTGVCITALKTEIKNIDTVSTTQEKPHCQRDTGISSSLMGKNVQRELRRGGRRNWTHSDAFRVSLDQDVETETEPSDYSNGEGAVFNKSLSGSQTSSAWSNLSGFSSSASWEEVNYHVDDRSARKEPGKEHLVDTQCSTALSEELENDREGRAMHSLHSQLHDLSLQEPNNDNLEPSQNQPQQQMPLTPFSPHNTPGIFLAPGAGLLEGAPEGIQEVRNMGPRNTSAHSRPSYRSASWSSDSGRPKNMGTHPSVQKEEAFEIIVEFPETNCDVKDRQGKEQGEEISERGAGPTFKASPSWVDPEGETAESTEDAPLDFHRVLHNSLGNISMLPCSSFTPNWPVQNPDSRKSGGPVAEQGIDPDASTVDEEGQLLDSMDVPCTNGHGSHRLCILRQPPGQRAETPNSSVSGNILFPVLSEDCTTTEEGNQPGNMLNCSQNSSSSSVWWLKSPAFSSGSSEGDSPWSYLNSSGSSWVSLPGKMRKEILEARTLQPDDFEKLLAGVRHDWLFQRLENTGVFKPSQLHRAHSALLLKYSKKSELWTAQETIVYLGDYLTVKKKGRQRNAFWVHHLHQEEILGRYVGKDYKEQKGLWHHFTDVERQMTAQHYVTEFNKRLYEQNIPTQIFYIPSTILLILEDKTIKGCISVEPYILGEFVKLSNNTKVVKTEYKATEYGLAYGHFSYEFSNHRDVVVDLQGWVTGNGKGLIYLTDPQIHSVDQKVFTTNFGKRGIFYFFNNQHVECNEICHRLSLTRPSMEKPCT

On to `COc1ccc(C(C)(C)c2csc(NC(=O)c3ccc(N4CCNCC4)cn3)n2)cc1` [Example B044, N-(4-(2-(4-methoxyphenyl)propan-2-yl)thiazol-2-yl)-5-(piperazin-1-yl)picolinamide], for which the negative logarithm of the IC50 (pIC50) under setting [1] was 6.67.
As for `COc1ccc(C(C)(C)c2csc(NC(=O)NCc3ccc(N4CCC(O)C4)cc3)n2)cc1` (stereo not shown) [Example A069, 1-(4-(3-hydroxypyrrolidin-1-yl)benzyl)-3-(4-(2-(4-methoxyphenyl)propan-2-yl)thiazol-2-yl)urea], the negative-log IC50 (pIC50) is 6.57.
For `C#C[C@@](C)(c1ccc(Cl)cc1)c1csc(NC(=O)c2c(F)cc(N3CCN(CCO)CC3)cc2F)n1` [Example C023, (S)-N-(4-(2-(4-chlorophenyl)but-3-yn-2-yl)thiazol-2-yl)-2,6-difluoro-4-(4-(2-hydroxyethyl)piperazin-1-yl)benzamide], the pIC50 under setting [1] is 7.22.
Compound `C#CC(CC)(c1ccc(Cl)cc1)c1csc(NC(=O)c2c(F)cc(N3CCNCC3)cc2F)n1` (stereo not shown) [Example C047, N-(4-(3-(4-chlorophenyl)pent-1-yn-3-yl)thiazol-2-yl)-2,6-difluoro-4-(piperazin-1-yl)benzamide] gave a pIC50 under setting [1] of 6.88.
`CC(C)(c1ccc(Br)cc1)c1csc(NC(=O)NCc2cnc(N3CCC(N)C3)nc2)n1` (stereo not shown) [Example A078, 1-((2-(3-aminopyrrolidin-1-yl)pyrimidin-5-yl)methyl)-3-(4-(2-(4-bromophenyl)propan-2-yl)thiazol-2-yl)urea] gave a pIC50 of 8.10.
The compound `CC(C)(c1ccc(Br)cc1)c1csc(NC(=O)NCc2ccc(N3CCCNCC3)c(F)c2)n1` [Example A197, 1-(4-(1,4-diazepan-1-yl)-3-fluorobenzyl)-3-(4-(2-(4-bromophenyl)propan-2-yl)thiazol-2-yl)urea] had a pIC50 of 7.17.
On to `COc1ccc(C(C)(C)c2csc(NC(=O)c3ccc(C4(O)CCNCC4)cc3)n2)cc1` [Example B049, 4-(4-hydroxypiperidin-4-yl)-N-(4-(2-(4-methoxyphenyl)propan-2-yl)thiazol-2-yl)benzamide hydrochloride], for which the pIC50 under setting [1] is 6.34.
Under setting [1], `COc1ccc(C(C)(C)c2cnc(NC(=O)c3ccc(N4CCNCC4)c(F)c3)s2)cc1` [Example B038, 3-fluoro-N-(5-(2-(4-methoxyphenyl)propan-2-yl)thiazol-2-yl)-4-(piperazin-1-yl)benzamide] gave a pIC50 of 6.67.
For the compound `C#CC(C)(c1ccc(Br)cc1)c1csc(NC(=O)C2CC(O)C2)n1` (stereo not shown) [Example D007, N-(4-(2-(4-bromophenyl)but-3-yn-2-yl)thiazol-2-yl)-3-hydroxycyclobutanecarboxamide], the pIC50 under setting [1] is 7.26.
Consider `COc1ccc(C(C)(C)c2csc(NC(=O)c3cccc(CN4CCN(CCO)CC4)c3)n2)cc1` [Example B018, 3-((4-(2-hydroxyethyl)piperazin-1-yl)methyl)-N-(4-(2-(4-methoxyphenyl)propan-2-yl)thiazol-2-yl)benzamide], for which the pIC50 under setting [1] was 6.73.
For `C#CC(C)(c1ccc(OC)cc1)c1csc(NC(=O)c2c(F)cc(N3CCNC(CO)C3)cc2F)n1` (stereo not shown) [Example B084, 2,6-difluoro-4-(3-(hydroxymethyl)piperazin-1-yl)-N-(4-(2-(4-methoxyphenyl)but-3-yn-2-yl)thiazol-2-yl)benzamide], the pIC50 under setting [1] is 7.55.
In turn, `COCC(C)(c1ccc(OC)cc1)c1csc(NC(=O)c2c(F)cc(N3CCNCC3)cc2F)n1` (stereo not shown) [Example C021, 2,6-difluoro-N-(4-(1-methoxy-2-(4-methoxyphenyl)propan-2-yl)thiazol-2-yl)-4-(piperazin-1-yl)benzamide] showed a pIC50 under setting [1] of 7.36.
In the case of `C#CC(C)(c1ccc(Cl)cc1)c1csc(NC(=O)c2c(F)cc(N3CCN(C)CC3)cc2F)n1` (stereo not shown) [Example C009, N-(4-(2-(4-chlorophenyl)but-3-yn-2-yl)thiazol-2-yl)-2,6-difluoro-4-(4-methylpiperazin-1-yl)benzamide], under setting [1], the pIC50 is 8.15.
Compound `COc1ccc(C(C)(C)c2csc(NC(=O)NCc3ccc(N4CCC(N)C4)nc3)n2)cc1` (stereo not shown) [Example A199, 1-((6-(3-aminopyrrolidin-1-yl)pyridin-3-yl)methyl)-3-(4-(2-(4-methoxyphenyl)propan-2-yl)thiazol-2-yl)urea] gave a pIC50 of 7.47.
In turn, `COc1ccc(C(C)(C)c2csc(NC(=O)c3ccc(N4CCC(N(C)C)C4)cc3)n2)cc1` (stereo not shown) [Example B027, 4-(3-(dimethylamino)pyrrolidin-1-yl)-N-(4-(2-(4-methoxyphenyl)propan-2-yl)thiazol-2-yl)benzamide] showed a negative-log IC50 (pIC50) under setting [1] of 6.66.
On the same count and under the same terms, as for `C#CC(C)(c1ccc(Br)cc1)c1csc(NC(=O)[C@H]2C[C@@H](CO)C2)n1` (mixture of isomers) [Example D006, rac-(1s,3s)-N-(4-(2-(4-bromophenyl)but-3-yn-2-yl)thiazol-2-yl)-3-(hydroxymethyl)cyclobutanecarboxamide], the figure is 7.40; as for `COc1ccc(C(C)(C)c2csc(NC(=O)c3ccc(OCCN4CCNCC4)cc3)n2)cc1` [Example B024, N-(4-(2-(4-methoxyphenyl)propan-2-yl)thiazol-2-yl)-4-(2-(piperazin-1-yl)ethoxy)benzamide], 6.94; as for `C#CC(C)(c1ccc(Cl)cc1)c1csc(NC(=O)c2ccc(N3CCNCC3)cc2)n1` (stereo not shown) [Example B062, N-(4-(2-(4-chlorophenyl)but-3-yn-2-yl)thiazol-2-yl)-4-(piperazin-1-yl)benzamide], 7.92.
On to `C#C[C@@](C)(c1ccc(Cl)cc1)c1csc(NC(=O)c2c(F)cc(N3CCNCC3CO)cc2F)n1` (stereo in doubt) [Example B097, N-[4-[1-(4-chlorophenyl)-1-methyl-prop-2-ynyl]thiazol-2-yl]-2,6-difluoro-4-[2-(hydroxymethyl)piperazin-1-yl]benzamide], for which, under setting [1], the pIC50 is 6.92.
The same measure, in the same setting: as for `COc1ccc(C(C)(C)c2csc(NC(=O)c3ccc(CN4CCNCC4C)cc3)n2)cc1` (stereo not shown) [Example B026, N-(4-(2-(4-methoxyphenyl)propan-2-yl)thiazol-2-yl)-4-((2-methylpiperazin-1-yl)methyl)benzamide], the figure is 6.90.
In the case of `C#CC(C)(c1ccc(Cl)cc1)c1csc(NC(=O)N(CCO)CCO)n1` (stereo not shown) [Example A267, 3-(4-(2-(4-chlorophenyl)but-3-yn-2-yl)thiazol-2-yl)-1,1-bis(2-hydroxyethyl)urea], the pIC50 was 6.77.
`CCOCC(C)(c1ccccc1)c1csc(NC(=O)c2c(F)cc(N3CCNCC3)cc2F)n1` (stereo not shown) [Example C031, N-(4-(1-ethoxy-2-phenylpropan-2-yl)thiazol-2-yl)-2,6-difluoro-4-(piperazin-1-yl)benzamide] had a pIC50 under setting [1] of 6.19.
Still for that read-out and setting: as for `COc1ccc(C(C)(C)c2csc(NC(=O)c3ccc(N4CCNCC4)nc3)n2)cc1` [Example B042, N-(4-(2-(4-methoxyphenyl)propan-2-yl)thiazol-2-yl)-6-(piperazin-1-yl)nicotinamide], the figure is 7.07; as for `C#C[C@@](C)(c1ccc(Cl)cc1)c1csc(NC(=O)c2ccc(N3CCNC(CO)C3)cc2)n1` (stereo in doubt) [Example B077, N-(4-(2-(4-chlorophenyl)but-3-yn-2-yl)thiazol-2-yl)-4-(3-(hydroxymethyl)piperazin-1-yl)benzamide], 7.05; as for `CC(C)(c1ccc(Br)cc1)c1csc(NC(=O)c2ccc(CN3CCN(CCO)CC3)nc2)n1` [Example B051, N-(4-(2-(4-bromophenyl)propan-2-yl)thiazol-2-yl)-6-((4-(2-hydroxyethyl)piperazin-1-yl)methyl)nicotinamide], 7.21.
Still for that read-out and setting: under `C#C[C@](C)(c1ccc(F)cc1)c1csc(NC(=O)c2ccc(N3CCNCC3CO)cc2)n1` (stereo in doubt) [Example B072, N-[4-[1-(4-fluorophenyl)-1-methyl-prop-2-ynyl]thiazol-2-yl]-4-[2-(hydroxymethyl)piperazin-1-yl]benzamide] stands 6.59; under `C#C[C@@](C)(c1ccc(F)cc1)c1csc(NC(=O)c2c(F)cc(N3CCC(N)C3)cc2F)n1` (stereo in doubt) [Example B091, 4-(3-aminopyrrolidin-1-yl)-2,6-difluoro-N-(4-(2-(4-fluorophenyl)but-3-yn-2-yl)thiazol-2-yl)benzamide], 7.19; under `COc1ccc(C(C)(C)c2csc(NC(=O)c3ccc(N4CCN(CCO)CC4)nc3)n2)cc1` [Example B053, 6-(4-(2-hydroxyethyl)piperazin-1-yl)-N-(4-(2-(4-methoxyphenyl)propan-2-yl)thiazol-2-yl)nicotinamide], 6.98.

Usually pIC50 stands for the IC50 on a negative log10 scale, so that one unit is a factor of ten. A higher pIC50 goes with a small IC50.

For the origin of these results see US20240109853A1 (Shanghai Yao Yuan Biotechnology Co., Ltd., priority 2020, published 2024).
